Results as given in patent EP2140864A2 (H. Lundbeck A/S, priority 2001, dated 2002).
Like-named read-outs stand apart in the source and are kept apart here.

Assays:
human GAL3 receptor = target: T1, human GAL3 receptor (Homo sapiens, UniProt O60755); test: Radioligand binding at cloned human GAL3 receptor; conditions: cloned human receptor, read-out: Ki GalR3
T1 construct: expressed in transfected cells
T1 sequence (O60755 1-368): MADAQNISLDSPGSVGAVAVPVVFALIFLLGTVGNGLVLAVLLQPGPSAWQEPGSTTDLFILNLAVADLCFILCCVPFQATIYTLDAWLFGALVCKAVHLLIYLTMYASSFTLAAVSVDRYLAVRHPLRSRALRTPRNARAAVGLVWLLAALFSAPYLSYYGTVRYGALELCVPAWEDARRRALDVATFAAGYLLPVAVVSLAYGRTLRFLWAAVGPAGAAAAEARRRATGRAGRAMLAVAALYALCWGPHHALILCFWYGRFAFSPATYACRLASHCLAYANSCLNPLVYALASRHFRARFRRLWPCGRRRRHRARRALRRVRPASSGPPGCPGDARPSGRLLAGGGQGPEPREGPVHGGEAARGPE
Procedure, shortened: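 Compound vehicle, as final assay concentration, was 3% DMSO (indolones) or 1% ethanol/0.09% polypuronic acid F-127 (pyrimidines). Binding measured on fresh or frozen membranes of stably transfected LM(tk-) mouse fibroblasts carrying cloned human GAL3, in pH 7.4 HEPES buffer; values derived by nonlinear regression.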

human GAL2 receptor = target: T2, human GAL2 receptor (Homo sapiens, UniProt O43603); test: Radioligand binding at cloned human GAL2 receptor; conditions: read-out: Ki GalR2
T2 construct: expressed in transfected cells
T2 sequence (O43603 1-387): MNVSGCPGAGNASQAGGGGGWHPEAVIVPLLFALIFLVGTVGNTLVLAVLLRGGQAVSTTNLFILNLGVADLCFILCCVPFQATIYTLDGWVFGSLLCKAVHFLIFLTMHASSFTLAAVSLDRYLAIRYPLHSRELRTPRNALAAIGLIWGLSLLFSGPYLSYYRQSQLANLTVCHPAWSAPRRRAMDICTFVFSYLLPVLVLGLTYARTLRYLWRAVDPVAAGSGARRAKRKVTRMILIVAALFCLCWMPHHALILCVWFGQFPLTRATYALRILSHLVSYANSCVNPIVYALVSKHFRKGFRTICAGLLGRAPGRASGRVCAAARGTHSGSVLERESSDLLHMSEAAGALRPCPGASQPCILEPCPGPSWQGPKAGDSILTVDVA
Experimental: The binding properties of the pyrimidines of the present invention were evaluated at the cloned human galanin receptors, GAL1, GAL2, and GAL3, using protocols described herein.
The binding properties of the indolones of the present invention were evaluated at the cloned human galanin receptors, GAL1, GAL2, and GAL3, using protocols described herein.
(§1) LM(tk-) cells were stably transfected with the human GAL1 or GAL3 receptor. CHO cells were stably transfected with the human GAL2 receptor.
(§2) cDNAs for the human and rat GAL1, and human and rat GAL3 receptors were transfected with a G-418 resistant gene into the mouse fibroblast LM(tk-) cell line by a calcium phosphate transfection method (Cullen, 1987). Stably transfected cells were selected with G-418. Human and rat GAL2 receptors were similarly transfected into CHO cells.
(§3) Membranes were harvested from stably transfected LM(tk-) cells. Adherent cells were washed twice in ice-cold phosphate buffered saline (138 mM NaCl, 8.1 mM Na2HPO4, 2.5 mM KCl, 1.2 mM KH2PO4, 0.9 mM CaCl2, 0.5 mM MgCl2, pH 7.4) and lysed by sonication in ice-cold sonication buffer (20 mM Tris-HCl, 5 mM EDTA, pH 7.7). Large particles and debris were cleared by low speed centrifugation (200 x g, 5 min, 4°C). Membranes were collected from the supernatant fraction by centrifugation (32,000 x g, 18 min, 4°C), washed with ice-cold hypotonic buffer, and collected again by centrifugation (32,000 x g, 18 min, 4°C). The final membrane pellet was resuspended by sonication into a small volume of ice-cold binding buffer (-1 ml for every 5 plates: 10 mM NaCl, 20 mM HEPES, 0.22 mM KH2PO4, 1.26 mM CaCl2, 0.81 mM MgSO4, pH 7.4). Protein concentration was measured by the Bradford method (Bradford, 1976) using Bio-Rad Reagent, with bovine serum albumin as a standard. Membranes were held on ice for up to one hour and used fresh, or flash frozen and stored in liquid nitrogen. Membranes were prepared similarly from CHO cells.
(§4) Galanin Recentors: Binding assays were performed according to the following published methods: human GAL3 (PCT International Publication No. WO 98/15570), human GAL1 (PCT International Publication No. WO 95/2260), human GAL2 (PCT International Publication No. WO 97/26853).
(§5) Binding data were analyzed using nonlinear regression and statistical techniques available in the GraphPAD Prism package (San Diego, CA). Enzymatic assay data were derived from a standard curve of reference compound data.

human GAL1 receptor = target: T3, human GAL1 receptor (Homo sapiens, UniProt P47211); test: Radioligand binding at cloned human GAL1 receptor; conditions: read-out: Ki GalR1
T3 construct: expressed in transfected cells
T3 sequence (P47211 1-349): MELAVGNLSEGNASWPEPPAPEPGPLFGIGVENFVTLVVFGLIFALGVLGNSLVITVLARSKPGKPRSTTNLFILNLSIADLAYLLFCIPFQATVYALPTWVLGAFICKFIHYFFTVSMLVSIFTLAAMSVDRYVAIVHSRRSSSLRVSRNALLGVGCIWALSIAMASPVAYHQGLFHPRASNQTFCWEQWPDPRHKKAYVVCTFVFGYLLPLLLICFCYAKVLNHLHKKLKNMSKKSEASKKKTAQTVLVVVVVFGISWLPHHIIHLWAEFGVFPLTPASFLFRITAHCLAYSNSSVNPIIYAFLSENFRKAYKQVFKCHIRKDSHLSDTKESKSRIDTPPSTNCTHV
Experimental: The binding properties of the pyrimidines of the present invention were evaluated at the cloned human galanin receptors, GAL1, GAL2, and GAL3, using protocols described herein. […]
as §1, §2, §3, §4, §5

Row | Structure (SMILES) | Ki (human GAL3 receptor; pyrimidines) [nM] | Ki (human GAL2 receptor; pyrimidines) [nM] | Ki (human GAL1 receptor; pyrimidines) [nM] | Ki (human GAL3 receptor; indolones) [nM] | Ki (human GAL2 receptor; indolones) [nM] | Ki (human GAL1 receptor; indolones) [nM]
1 | Cc1ccc(Nc2cc(N(C)C)nc(N3CCc4ccccc43)n2)cc1 [Example 75] | 144 | 2460 | 1460 | – | – | –
2 | Cc1ccc(Nc2cc(N3CCCCC3)nc(NC(C)Cc3c[nH]c4ccccc34)n2)cc1 (stereo not drawn) [Example 20] | 164 | > 5000 | > 5000 | – | – | –
3 | CCN(CCc1c[nH]c2ccccc12)c1nc(Nc2ccc(C)cc2)cc(N2CCCCC2)n1 [Example 18] | 40 | 543 | 3590 | – | – | –
4 | Cc1ccc(Nc2cc(N(C)C)nc(N3CCN(c4ncccc4C(F)(F)F)CC3)n2)cc1 [Example 88] | 39 | 355 | 2190 | – | – | –
5 | CN(CCc1c[nH]c2ccccc12)c1nc(Nc2ccc3ccccc3c2)cc(N2CCCCC2)n1 [Example 13] | 81 | 1410 | 2070 | – | – | –
6 | Cc1ccc(Nc2cc(N3CCCCC3)nc(N(C)c3ccc(C)cc3)n2)cc1 [Example 7] | 177 | 775 | 1110 | – | – | –
7 | Cc1ccc(Nc2cc(N3CCCCC3)nc(N3CCCC3)n2)cc1 [Example 38] | 320 | 516 | 2900 | – | – | –
8 | Cc1ccc(Nc2cc(N(C)C)nc(N3CCOC(c4ccccc4)C3)n2)cc1 (stereo not drawn) [Example 83] | 160 | > 5000 | > 5000 | – | – | –
9 | Cc1ccc(Nc2cc(N(C)C)nc(Nc3ccccc3)n2)cc1Cl [Example 62] | 736 | > 5000 | > 5000 | – | – | –
10 | CN(C)c1cc(Nc2ccc(Cl)c(Cl)c2)nc(N(C)CCc2c[nH]c3ccccc23)n1 [Example 78] | 41 | 1860 | 4940 | – | – | –
11 | FC(F)(F)c1cccnc1N1CCN(c2nc(NC3CC4CCC3C4)cc(N3CCCCC3)n2)CC1 (stereo not drawn) [Example 36] | 93 | 90 | 442 | – | – | –
12 | Cc1ccc(Nc2cc(N3CCCCC3)nc(N3CCN(c4c(C)cccc4C)CC3)n2)cc1 [Example 27] | 63 | 272 | 2690 | – | – | –
13 | Cc1ccc(Nc2cc(N3CCCCC3)nc(N3CCN(c4ccccc4)CC3)n2)cc1 [Example 25] | 548 | 1500 | > 5000 | – | – | –
14 | CCOc1ccc(N=C2C(=O)N(c3ccccc3)c3ccccc32)cc1 [Example 101, 3-[(4-ETHOXYPHENYL)IMINO]-1-PHENYL-1,3-DIHYDRO-2H-INDOL-2-ONE] | – | – | – | 305 | > 10000 | > 10000
15 | Cc1ccc(Nc2cc(N3CCCCC3)nc(N3CCOC(c4ccccc4)C3)n2)cc1 (stereo not drawn) [Example 47] | 115 | 3010 | > 5000 | – | – | –
16 | COc1ccccc1N=C1C(=O)N(c2ccccc2)c2ccccc21 [Example 91, 3-[(2-METHOXYPHENYL)IMINO]-1-PHENYL-1,3-DIHYDRO-2H-INDOL-2-ONE] | – | – | – | 527 | > 10000 | > 10000
17 | Cc1ccc(Nc2cc(N3CCCCC3)nc(N(C)C3CCCCC3)n2)cc1 [Example 1] | 35 | 188 | 668 | – | – | –
18 | COCC1CCCCN1c1cc(Nc2ccc(C)cc2)nc(N2CCN(c3ncccc3C(F)(F)F)CC2)n1 (stereo not drawn) [Example 90] | 105 | 2460 | > 5000 | – | – | –
19 | CN(C)c1cc(NC2CCC(C(C)(C)C)CC2)nc(Nc2ccccc2)n1 (stereo not drawn) [Example 68] | 164 | 2150 | > 5000 | – | – | –
